In doi:10.1101/2025.03.04.25323177v1 (medRxiv, 2025):
No end group written: not given here.

B1: ceruloplasmin: protein tested for interaction in the PACAP assay (protein, UniProt P00450 20-1065, looked up)
Ceruloplasmin: KEKHYYIGIIETTWDYASDHGEKKLISVDTEHSNIYLQNGPDRIGRLYKKALYLQYTDETFRTTIEKPVWLGFLGPIIKAETGDKVYVHLKNLASRPYTFHSHGITYYKEHEGAIYPDNTTDFQRADDKVYPGEQYTYMLLATEEQSPGEGDGNCVTRIYHSHIDAPKDIASGLIGPLIICKKDSLDKEKEKHIDREFVVMFSVVDENFSWYLEDNIKTYCSEPEKVDKDNEDFQESNRMYSVNGYTFGSLPGLSMCAEDRVKWYLFGMGNEVDVHAAFFHGQALTNKNYRIDTINLFPATLFDAYMVAQNPGEWMLSCQNLNHLKAGLQAFFQVQECNKSSSKDNIRGKHVRHYYIAAEEIIWNYAPSGIDIFTKENLTAPGSDSAVFFEQGTTRIGGSYKKLVYREYTDASFTNRKERGPEEEHLGILGPVIWAEVGDTIRVTFHNKGAYPLSIEPIGVRFNKNNEGTYYSPNYNPQSRSVPPSASHVAPTETFTYEWTVPKEVGPTNADPVCLAKMYYSAVEPTKDIFTGLIGPMKICKKGSLHANGRQKDVDKEFYLFPTVFDENESLLLEDNIRMFTTAPDQVDKEDEDFQESNKMHSMNGFMYGNQPGLTMCKGDSVVWYLFSAGNEADVHGIYFSGNTYLWRGERRDTANLFPQTSLTLHMWPDTEGTFNVECLTTDHYTGGMKQKYTVNQCRRQSEDSTFYLGERTYYIAAVEVEWDYSPQREWEKELHHLQEQNVSNAFLDKGEFYIGSKYKKVVYRQYTDSTFRVPVERKAEEEHLGILGPQLHADVGDKVKIIFKNMATRPYSIHAHGVQTESSTVTPTLPGETLTYVWKIPERSGAGTEDSACIPWAYYSTVDQVKDLYSGLIGPLIVCRRPYLKVFNPRRKLEFALLFLVFDENESWYLDDNIKTYSDHPEKVNKDDEEFIESNKMHAINGRMFGNLQGLTMHVGDEVNWYLMGMGNEIDLHTVHFHGHSFQYKHRGVYSSDVFDIFPGTYQTLEMFPRTPGIWLLHCHVTDHIHAGMETTYTVLQNEDTKSG

Test system: Anti-PACAP antibodies (capture Lu AG20136, detection Lu AG20141)
Assay: Reactivity in PACAP MSD S-PLEX sandwich immunoassay
Format: binding
Conditions: sandwich ECL immunoassay

Molecule | Reactivity in PACAP MSD S-PLEX assay
vasoactive intestinal peptide (HSDAVFTDNYTRLRKQMAVKKYLNSILN; ends and bridges not checked; UniProt P01282 125-152, looked up) [VIP] | No reactivity
B1 | no interaction
